Patent US20240398818A1, “Cardiosafe Antidiabetic Therapy” (priority 2018, published 2024)

System: adult patients with early type 2 diabetes mellitus and increased CV risk or established complications
Assay: Cardiovascular Safety Trial (linagliptin versus glimepiride)
Type: in vivo
Procedure: The effect of linagliptin on cardiovascular risk in adult patients with early type 2 diabetes mellitus and increased CV risk or established complications was evaluated in this Cardiovascular Safety Trial, a multi-center, multi-national, randomized, double-blind parallel group trial. The trial compared the risk of experiencing a major adverse cardiovascular event (MACE) between linagliptin and glimepiride when these were added to standard of care (including background therapy with metformin) based on regional standards for HbA1c and CV risk factors. The trial was event driven and patients were followed until at least 631 primary outcome events accrued.
A total of 6033 patients were treated (linagliptin 5 mg=3023; glimepiride 1 mg to 4 mg=3010) and followed for a median of 6.25 years (median time on treatment 5.9 years). Approximately 73% of the study population was Caucasian, 18% was Asian, and 5% was Black. The mean age was 64 years and 60% were male.
At baseline, disease characteristics were balanced. […] The trial population included 2030 (34%) patients ≥70 years of age, 2089 (35%) patients with cardiovascular disease, and 1130 (19%) patients with renal impairment with an eGFR <60 mL/min/1.73 m2 at baseline. Overall, the previous use of diabetes medications was balanced across treatment groups (metformin 83% continued as background therapy, sulfonylurea 28% discontinued prior to randomization), patients on insulin were excluded. The use of medications to reduce cardiovascular risk was also balanced (aspirin 47%, statins 65%, ACE inhibitors or ARBs 74%, beta blockers 39%, and calcium channel blockers 30%).
The primary endpoint in this Cardiovascular Safety Trial was the time to first occurrence of three point (3P) MACE. A major adverse cardiac event was defined as a cardiovascular death or a nonfatal myocardial infarction (MI) or a nonfatal stroke. The statistical analysis plan tested for non-inferiority for the occurrence of 3P MACE. The key secondary endpoint evaluated the composite of treatment sustainability defined as the proportion of patients on study treatment, that maintain glycemic control (HbA1c≤7.0%) without need for additional antidiabetic drug therapy (rescue medication), without any moderate (symptomatic with glucose value <70 mg/dL) or severe (requiring assistance) hypoglycemic episodes, and without >2% weight gain from baseline.
Cardiovascular Outcome Trial of Linagliptin Versus Glimepriride in Type 2 Diabetes—assessing long-term cardiovascular impact of linagliptin versus the sulphonylurea glimepiride in subjects with early type 2 diabetes and increased cardiovascular risk or established complications. […]
Type 2 diabetes patient with insufficient glycemic control (naïve or currently treated (mono or dual therapy) with e.g. metformin and/or an alpha-glucosidase inhibitor (e.g. having HbA1c 6.5-8.5%), or currently treated (mono or dual therapy) with e.g. a sulphonylurea or glinide, with or without metformin or an alpha-glucosidase inhibitor (e.g. having HbA1c 6.5-7.5%)) and increased or high risk of cardiovascular events, e.g. defined as one or more of risk factors A), B), C) and D) indicated below, are randomized* and treated over a lengthy period (e.g. up to 432 weeks) with linagliptin (5 mg, q.d., optionally in combination with one or more other active substances, e.g. such as added to existing antidiabetic background) and compared with patients treated with the sulphonylurea glimepiride (1-4 mg once daily). * Upon randomization, if a patient is on a SU or glinide, this secretagogue therapy is discontinued and replaced with study medication. For patients not on a secretagogue, study medication is added to the existing regimen.
Time to first occurrence of any of the following adjudicated components of the primary composite endpoint: […]

[1] = baseline to Final Visit, observed cases including values after rescue medication
[2] = both, human, in vivo, 5.9 years
[3] = both, human, in vivo, 6.25 years
[4] = component of secondary composite
[5] = from end of titration (16 weeks) to final visit
[6] = median follow-up 6.25 years, listed as linagliptin

CC#CCn1c(N2CCC[C@@H](N)C2)nc2c1c(=O)n(Cc1nc(C)c3ccccc3n1)c(=O)n2C [Linagliptin, 1-[(4-methyl-quinazolin-2-yl)methyl]-3-methyl-7-(2-butyn-1-yl)-8-(3-(R)-amino-piperidin-1-yl)-xanthine]
patients with macroalbuminuria (>300 mg/g) (at Final Visit): 1.4% | patients with microalbuminuria (≥30 to ≤300 mg/g) (at Final Visit): 14.1% | patients with normal UACR (<30 mg/g) (at baseline and at Final Visit): 58.4% | HBA1c, Change from baseline, adjusted mean (baseline to Final Visit, all observed cases): 0.06% | Creatinine, Change from baseline, adjusted mean [1]: 0.08 mg/dL | HDL, Change from baseline, adjusted mean [1]: 0.7 mg/dL | LDL, Change from baseline, adjusted mean [1]: -6.1 mg/dL | Total cholesterol, Change from baseline, adjusted mean [1]: -5.4 mg/dL | Triglyceride, Change from baseline, adjusted mean [1]: 1.7 mg/dL | Urinary albumin, Change from baseline, adjusted mean [1]: 43.4 mg/dL | third key secondary endpoint of treatment sustainability (on medication, HbA1c≤7.0%, no rescue, no >2% weight gain), responders (between Visit 6 and Final Visit): 17.4% | Hospitalization for heart failure (HHF), Incidence Rate per 1000 PY (both, human, in vivo): 6.4 per 1000 PY | Hospitalization for heart failure (HHF), Number of Subjects (both, human, in vivo): 112 | Moderate/severe hypoglycaemic episodes, odds ratio (both, human, in vivo): 0.16 | Patients with any moderate/severe hypoglycemic episodes, Number of Subjects (both, human, in vivo): 163 | Patients with any moderate/severe hypoglycemic episodes, Subjects (%) (both, human, in vivo): 5.6% | Secondary CV composite (4P-MACE), Incidence Rate per 1000 PY (both, human, in vivo): 23.4 per 1000 PY | rate of moderate or severe hypoglycemia [2]: 6.5% | severe hypoglycemia (requiring assistance) [2]: 0.3% | Premature discontinuation from trial medication due to adverse events [3]: 15.1% | Primary CV composite (3P-MACE), Hazard Ratio [3]: 0.98 | Primary CV composite (3P-MACE), Incidence Rate per 1000 PY [3]: 20.7 per 1000 PY | Secondary CV composite (4P-MACE), Hazard Ratio [3]: 0.99 | all-cause mortality, incidence rate per 1000 years at risk [3]: 16.8 per 1000 years at risk | any adjudicated event (secondary CV endpoint), % of patients [3]: 17.1% | any adjudicated event, HR [3]: 0.96 | hospitalisation for heart failure combined with CV death, incidence rate per 1000 years at risk [3]: 13.4 per 1000 years at risk | hospitalisation for heart failure, incidence rate per 1000 years at risk [3]: 6.4 per 1000 years at risk | investigator-reported heart failure AEs, % of patients [3]: 5.5% | investigator-reported heart failure AEs, HR [3]: 1.06 | investigator-reported heart failure AEs, incidence rate per 1000 years at risk [3]: 9.5 per 1000 years at risk | non-CV death, % of patients [3]: 4.6% | non-CV death, incidence rate per 1000 years at risk [3]: 7.6 per 1000 years at risk | proportion of patients with CV death contributing to the 3P-MACE [3]: 4.3% | proportion of patients with CV death contributing to the 4P-MACE [3]: 4.1% | proportion of patients with hospitalisation for unstable angina pectoris contributing to the 4P-MACE [3]: 1.9% | proportion of patients with non-fatal MI contributing to the 3P-MACE [3]: 4.7% | proportion of patients with non-fatal MI contributing to the 4P-MACE [3]: 4.4% | proportion of patients with non-fatal stroke contributing to the 3P-MACE [3]: 2.8% | proportion of patients with non-fatal stroke contributing to the 4P-MACE [3]: 2.8% | Creatinine, Comparison vs. glimepiride, Adjusted mean (change baseline to Final Visit): -0.01 mg/dL | FPG, Comparison vs. glimepiride, Adjusted mean (change baseline to Final Visit): -7.3 mg/dL | HBA1c, Comparison vs. glimepiride, Adjusted mean (change baseline to Final Visit): −0.09% | HDL, Comparison vs. glimepiride, Adjusted mean (change baseline to Final Visit): 0.5 mg/dL | LDL, Comparison vs. glimepiride, Adjusted mean (change baseline to Final Visit): 0.4 mg/dL | Total cholesterol, Comparison vs. glimepiride, Adjusted mean (change baseline to Final Visit): -0.4 mg/dL | Triglyceride, Comparison vs. glimepiride, Adjusted mean (change baseline to Final Visit): -3.5 mg/dL | Urinary albumin, Comparison vs. glimepiride, Adjusted mean (change baseline to Final Visit): -1.9 mg/dL | Patients with maintained glycemic control (HbA1c ≤7.0%), Number of Subjects [4]: 648 | Patients with maintained glycemic control (HbA1c ≤7.0%), Subjects (%) [4]: 21.5% | Patients with ≤2% weight gain, Number of Subjects [4]: 775 | Patients with ≤2% weight gain, Subjects (%) [4]: 25.7% | Secondary composite of treatment sustainability (on treatment, HbA1c ≤7.0%, no rescue, no moderate/severe hypoglycemic episodes, no >2% weight gain), Number of Subjects [5]: 481 | Secondary composite of treatment sustainability (second key secondary endpoint), Subjects (%) [5]: 16.0% | first intake of rescue medication, incidence rate per 1000 years at risk (in vivo): 128.6 per 1000 years at risk | rate of patients who used rescue medication (in vivo): 49.3% | safety profile in this trial population (in words) (in vivo): no new safety signal | time to 3P-MACE, non-inferiority test (in words) (in vivo): non-inferior | weight, adjusted mean difference (linagliptin compared with glimepiride over time): -1.61 kg | All-cause mortality, Hazard Ratio (linagliptin vs glimepiride): 0.91 | HHF or CV death, Hazard Ratio (linagliptin vs glimepiride): 1.00 | non-CV death, hazard ratio (linagliptin vs glimepiride): 0.82 | third key secondary endpoint of treatment sustainability, OR (linagliptin vs glimepiride): 1.29 | HHF or CV death, Hazard Ratio (linagliptin vs glimepiride, listed as linagliptin): 1.00 | Secondary composite of treatment sustainability (second key secondary endpoint), Odds Ratio (linagliptin vs glimepiride, logistic regression): 1.68 | All-cause mortality, Incidence Rate per 1000 PY (median follow-up 6.25 years): 16.8 per 1000 PY | All-cause mortality, Number of Subjects (median follow-up 6.25 years): 308 | All-cause mortality, Subjects (%) (median follow-up 6.25 years): (10.2) % | HHF or CV death, Incidence Rate per 1000 PY (median follow-up 6.25 years): 13.4 per 1000 PY | HHF or CV death, Number of Subjects (median follow-up 6.25 years): 236 | HHF or CV death, Subjects (%) (median follow-up 6.25 years): (7.8) % | Secondary CV composite (cardiovascular death, non-fatal MI, non-fatal stroke and hospitalization for unstable angina; 4P-MACE), Number of Subjects (median follow-up 6.25 years): 398 | Primary CV composite (cardiovascular death, non-fatal MI, non-fatal stroke; 3P-MACE), Number of Subjects (median follow-up 6.25 years, added to standard of care): 356 | All-cause mortality, Subjects (%) [6]: 10.2% | HHF or CV death, Subjects (%) [6]: 7.8% | weight change (in words) (over time): modest decrease in weight
